Like-named read-outs stand apart in the source and are kept apart here.
Columns and labels:
hNAAA [1] = biological target: T1, hNAAA (Homo sapiens (Human), UniProt Q02083); assay: Inhibition kinetics of hNAAA (pre-incubation, Lineweaver-Burk plot, rapid dilution); type: biochemical
Protocol: The curves represent 15 minutes (filled circles, solid line) and 3 hours (open circles, dotted line) preincubation of hNAAA with NAAA inhibitor Example 4.
Example 4 inhibition kinetics of hNAAA (reversible or irreversible) was investigated using two methods: (1) Short (15 min) and long (180 min) pre-incubation of the inhibitor and enzyme prior to addition of N-(4-methyl coumarin) palmitamide (PAMCA) substrate (FIG. 1). Example's 4 inhibition concentration (IC50) was unaffected by longer pre-incubation of hNAAA with 4.

TNBS-induced colitis = TNBS-induced colitis in mice; type: in vivo
Protocol: NAAA inhibitor Example 4 (10 mg/kg bid, ip) *p<0.05 versus the TNBS untreated group.
PEA (10 mg/kg) and NAAA inhibitor Example 4 (AM; 10 mg/kg bid, ip). Mice were sacrificed on day 3 after administration. Effects of PEA and Example 4 on colon weight/length ratio, feces and MPO activity, mRNA expression of F4-80, CD11b, IL-12, TNF-α, MCP-1 and IL-1β expression measured by ELISA. #p<0.05; ##p<0.005; ###p<0.001 versus control mice; *p<0.05 versus the TNBS-untreated group.
TNBS-induced colitis is accompanied by increased pro-inflammatory cytokines expression in the liver and brain. Effects of PEA administration and NAAA inhibition with Example 4 (10 mg/kg b.i.d) on pro-inflammatory cytokines expression in (A) the liver and (B) brain. Results are expressed as mean±SEM with n=10mice/group. *p<0.05; **p<0.005; ***p<0.001 versus the TNBS untreated group.
Applicants also studied the compound of Example 4 in animal models of trinitrobenzene sulfonic acid (TNBS)- and dextran sodium sulfate (DSS)-induced colitis. This study aimed to investigate the effects of inhibiting NAAA responsible for PEA hydrolysis in colon inflammation in order to propose a potential therapeutic target for inflammatory bowel diseases. PEA is a known anti-inflammatory compound with analgesic, neuroprotective and anti-allergic properties, and was recently shown to exert PPARα dependent beneficial effects on colon inflammation [Laboratory Investigation; a Journal of Technical Methods and Pathology. 2004; 84: 1643-54].

hNAAA [2] = biological target: T1, hNAAA; assay: Fluorescence-based NAAA inhibition assay with fluorogenic substrate PAMCA;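 note: compound preincubated 15 min at room temperature with hNAAA, then PAMCA added at 5 µM, reacted 120 min at 37 °C, AMC release read by fluorescence (ex 360, em 460 nm)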
Protocol: For three point concentration inhibition assays with hNAAA the following procedure is used. […] These samples are allowed to incubate for 15 min at room temperature and then 10 μL of a PAMCA stock solution in DMSO (final PAMCA concentration [5 μM]) was added. After 5 minutes of agitation on a shaking plate, the reaction is allowed to proceed at 37° C. for 120 minutes, with fluorescence readings taken every 10 minutes at a wavelength of 460 nm (using an excitation wavelength of 360 nm) on a Synergy HT Plate Reader using Gen5 software from Bio-Tek. The enzyme activity is calculated by converting the relative fluorescence units to AMC formed, using a standard curve of AMC. […] The assay procedure used is the same as the three point assay. […] After 5 minutes of agitation on a shaking plate, the reaction is allowed to proceed at 37° C. for 120 minutes Inhibition constants are calculated using pro Fit software (Quantum Soft, Uetikon am See, Switzerland) and a Levenberg-Marquardt algorithm.
For three point concentration inhibition assays with hNAAA the following procedure is used. […] These samples are allowed to incubate for 15 min at room temperature and then 10 μL of a PAMCA stock solution in DMSO (final PAMCA concentration [5 μM]) was added. After 5 minutes of agitation on a shaking plate, the reaction is allowed to proceed at 37° C. for 120 minutes, with fluorescence readings taken every 10 minutes at a wavelength of 460 nm (using an excitation wavelength of 360 nm) on a Synergy HT Plate Reader using Gen5 software from Bio-Tek. The enzyme activity is calculated by converting the relative fluorescence units to AMC formed, using a standard curve of AMC.
The assay procedure used is the same as the three point assay. […] After 5 minutes of agitation on a shaking plate, the reaction is allowed to proceed at 37° C. for 120 minutes. Inhibition constants are calculated using pro Fit software (Quantum Soft, Uetikon am See, Switzerland) and a Levenberg-Marquardt algorithm.

[3] = 10 mg/kg bid, ip, sacrificed day 3
[4] = read-out: NAAA Inhibition IC50 μM, purified hNAAA, PAMCA 5 μM, pH 4.5

T1 sequence (Q02083 29-125): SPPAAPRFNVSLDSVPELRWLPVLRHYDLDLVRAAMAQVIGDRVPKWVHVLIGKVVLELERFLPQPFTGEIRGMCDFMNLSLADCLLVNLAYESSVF
T1 sequence (Q02083 126-359): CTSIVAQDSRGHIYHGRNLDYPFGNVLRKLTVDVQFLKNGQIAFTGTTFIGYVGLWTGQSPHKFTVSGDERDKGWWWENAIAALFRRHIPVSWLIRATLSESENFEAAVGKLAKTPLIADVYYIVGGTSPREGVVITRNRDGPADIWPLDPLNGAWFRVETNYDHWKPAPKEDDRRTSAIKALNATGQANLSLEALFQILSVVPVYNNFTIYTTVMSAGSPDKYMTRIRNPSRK

## S=C=NCCCCCCCCCCc1ccccc1 [Example 4, (10-Isothiocyanatodecyl)benzene]
hNAAA [1]; 15 min vs 180 min pre-incubation of inhibitor and enzyme before PAMCA
  Effect of longer pre-incubation on IC50: unaffected
hNAAA [1]; PAMCA at different concentrations, inhibitor 50 nM
  Type of inhibition (Lineweaver-Burk plot): competitive type inhibitor
hNAAA [1]; conclusion from pre-incubation and rapid dilution
  Mode of inhibition (reversibility): reversible and non-covalent inhibitor
hNAAA [1]; dilution to inhibitor concentration below IC50
  Recovery of enzyme activity in rapid dilution experiment: fully recovered
TNBS-induced colitis; 10 mg/kg b.i.d, liver and brain
  Pro-inflammatory cytokines and chemokines expression in the liver and brain: decreased
TNBS-induced colitis; 10 mg/kg bid, ip, TNBS-induced colitis
  PEA levels in the colon: increased
TNBS-induced colitis; 10 mg/kg bid, ip, colon
  Expression of pro-inflammatory cytokines and chemokines in colon: reduced
  Leukocyte infiltration and activation (MPO activity, F4-80 and CD11b expression): reduced
TNBS-induced colitis; [3]
  All measured parameters of colon inflammation: decreased
  Colon weight/length ratio: reduced
  Weight of the cecal content: reduced
hNAAA [2]
  IC50: 0.01 to 0.1 µM

## N#CN1CCC(Oc2ccc(Br)cc2)CC1 [Example 106, 4-(4-Bromophenoxy)piperidine-1-carbonitrile]
hNAAA [2]; [4]
  IC50: > 1 µM

## N#C[C@H]1C[C@H](OCc2ccc(-c3ccccc3)cc2)C1 [Example 107, (1R,3R)-3-([1,1′-Biphenyl]-4-ylmethoxy)cyclobutane-1-carbonitrile]
hNAAA [2]; [4]
  IC50: > 1 µM

## N#C[C@H]1C[C@@H](OCc2ccc(-c3ccccc3)cc2)C1 [Example 108, (1S,3S)-3-([1,1′-biphenyl]-4-ylmethoxy)cyclobutane-1-carbonitrile]
hNAAA [2]; [4]
  IC50: > 1 µM

## COc1cccc(-c2ccc(COC3CN(CC#N)C3)cc2)c1 [Example 109, 2-(3-((3′-Methoxy-[1,1′-biphenyl]-4-yl)methoxy)azetidin-1-yl)acetonitrile]
hNAAA [2]; [4]
  IC50: > 1 µM

## N#Cc1ccc(OCc2ccc(Oc3ccccc3)cc2Br)cn1 [Example 110, 5-((2-Bromo-4-phenoxybenzyl)oxy)picolinonitrile]
hNAAA [2]; [4]
  IC50: > 1 µM

## N#Cc1ccc(OCc2ccc(-c3ccccc3)cc2)cn1 [Example 111, 5-([1,1′-Biphenyl]-4-ylmethoxy)picolinonitrile]
hNAAA [2]; [4]
  IC50: > 1 µM

## N#Cc1ncc(OCc2ccc(-c3ccccc3)cc2)cc1F [Example 112, 5-([1,1′-Biphenyl]-4-ylmethoxy)-3-fluoropicolinonitrile]
hNAAA [2]; [4]
  IC50: > 1 µM

## N#Cc1ncc(F)cc1OCc1ccc(-c2ccccc2)cc1 [Example 113, 3-([1,1′-Biphenyl]-4-ylmethoxy)-5-fluoropicolinonitrile]
hNAAA [2]; [4]
  IC50: > 1 µM

## N#Cc1cccc(C(=O)OCCCCCc2ccccc2)n1 [Example 114, 5-phenylpentyl 6-cyanopicolinate]
hNAAA [2]; [4]
  IC50: > 1 µM

## N#Cc1ncc(OCCCCCCc2ccccc2)cn1 [Example 115, 5-((6-phenylhexyl)oxy)pyrimidine-2-carbonitrile]
hNAAA [2]
  IC50: 0.11 to 1 µM

## N#Cc1ncc(OCCCCCc2ccccc2)cn1 [Example 116, 5-((5-phenylpentyl)oxy)pyrimidine-2-carbonitrile]
hNAAA [2]; [4]
  IC50: > 1 µM

## N#Cc1ncc(OCCOCCOCc2ccccc2)cn1 [Example 117, 5-(2-(2-(benzyloxy)ethoxy)ethoxy)pyrimidine-2-carbonitrile]
hNAAA [2]; [4]
  IC50: > 1 µM

Source: US9963444B2, “N-acylethanolamine hydrolyzing acid amidase (NAAA) inhibitors and their use thereof” (Northeastern University, priority 2014, dated 2018)
